# In the supplement of paper PMC13380429:
# How the values were obtained:
# Conditions in all cases: 72 h
# Caco-2 [1] = test: cell viability relative to DMSO; higher = less toxic
# Calu-3 [2] = test: as above
# HepG2 [3] = test: as above
# U2OS [4] = test: as above
# Vero E6 [5] = test: as above
# Caco-2 [6] = test: relative viability EC50 (midpoint between 100% and the lowest measured viability); higher = less toxic
# Calu-3 [7] = test: as above
# HepG2 [8] = test: as above
# U2OS [9] = test: as above
# Vero E6 [10] = test: as above
# Caco-2 [11] = test: drug sensitivity score (DSS) for viability; higher = more toxic; extreme values may be limits of the assay
# Calu-3 [12] = test: as above
# HepG2 [13] = test: as above
# U2OS [14] = test: as above
# Vero E6 [15] = test: as above
Structure (SMILES),cell viability (Caco-2 [1]; 1 nM) [%],cell viability (Caco-2 [1]; 10 nM) [%],cell viability (Caco-2 [1]; 100 nM) [%],cell viability (Caco-2 [1]; 1000 nM) [%],cell viability (Caco-2 [1]; 10000 nM) [%],cell viability (Calu-3 [2]; 1 nM) [%],cell viability (Calu-3 [2]; 10 nM) [%],cell viability (Calu-3 [2]; 100 nM) [%],cell viability (Calu-3 [2]; 1000 nM) [%],cell viability (Calu-3 [2]; 10000 nM) [%],cell viability (HepG2 [3]; 1 nM) [%],cell viability (HepG2 [3]; 10 nM) [%],cell viability (HepG2 [3]; 100 nM) [%],cell viability (HepG2 [3]; 1000 nM) [%],cell viability (HepG2 [3]; 10000 nM) [%],cell viability (U2OS [4]; 1 nM) [%],cell viability (U2OS [4]; 10 nM) [%],cell viability (U2OS [4]; 100 nM) [%],cell viability (U2OS [4]; 1000 nM) [%],cell viability (U2OS [4]; 10000 nM) [%],cell viability (Vero E6 [5]; 1 nM) [%],cell viability (Vero E6 [5]; 10 nM) [%],cell viability (Vero E6 [5]; 100 nM) [%],cell viability (Vero E6 [5]; 1000 nM) [%],cell viability (Vero E6 [5]; 10000 nM) [%],relative viability EC50 (Caco-2 [6]) [µM],relative viability EC50 (Calu-3 [7]) [µM],relative viability EC50 (HepG2 [8]) [µM],relative viability EC50 (U2OS [9]) [µM],relative viability EC50 (Vero E6 [10]) [µM],drug sensitivity score (Caco-2 [11]),drug sensitivity score (Calu-3 [12]),drug sensitivity score (HepG2 [13]),drug sensitivity score (U2OS [14]),drug sensitivity score (Vero E6 [15])
O=C([O-])CN1CCN(CC(=O)[O-])CCN([C@H](CO)[C@H](O)CO)CCN(CC(=O)[O-])CC1.[Gd+3] (racemic) [gadobutrol],107,96.2,95.5,98.8,104,96.2,104,109,109,98.4,97,99.2,101,91.8,100,99.6,113,100,104,106,100,105,96.8,99.4,107,> 10,> 10,> 10,> 10,> 10,0,0,0,0,0
N[C@@H](C(=O)O)c1nn[nH]n1 (racemic) [tetrazol-5-yl-glycine-(RS)],97.2,95.6,104,98,90.6,112,109,105,95.2,89.3,91,107,101,96.6,108,104,98.5,103,93.7,104,95,104,90.2,98.3,107,> 10,> 10,> 10,> 10,> 10,0,0.1,0,0,0
O=C1Cc2c([nH]c3ccc(Br)cc23)-c2ncccc2N1 [1-azakenpaullone],98.1,99.7,95.4,109,104,102,94.6,101,104,118,89.6,96.3,92.8,104,105,99.8,95.9,99.3,98.4,96.1,91.7,103,96.5,101,105,> 10,> 10,> 10,> 10,> 10,0,0,0,0,0
COc1ccc2[nH]c(-c3ccccc3)c(CCNC(C)=O)c2c1 [2-phenylmelatonin],98.8,105,93,98,82.6,96.5,94.9,99.3,106,102,104,99.5,101,101,105,102,101,97.6,105,98.1,101,99.9,106,98.8,93.7,> 10,> 10,> 10,> 10,> 10,0.6,0,0,0,0
Cc1ccc(/C=C2/C(=O)C3(C)CCC2C3(C)C)cc1 (stereo not given) [3-(4-methylbenzylidene)camphor],92.9,100,90,95.8,95.9,102,97.2,88.1,92.1,93.8,94.1,96,94.3,88.9,103,101,104,96.4,99.1,100,101,101,96.9,99.9,96.3,> 10,> 10,> 10,> 10,> 10,0,1.2,0,0,0
O=C(c1cc(S(=O)(=O)Nc2ccccc2F)c(F)cc1Cl)N1CCN2CCC[C@@H]2C1 [ABT-639],95.2,97.8,98.9,94.9,104,103,104,99.8,106,96.1,94.4,106,87.2,105,92.5,99.1,97.4,99,95.1,99.5,102,98.9,97.8,100,100,> 10,> 10,> 10,> 10,> 10,0,0,0,0,0
Cc1ccc(S(=O)(=O)NC2c3ccccc3Oc3ccccc32)cc1 [AH-7614],96.5,87.3,91.7,92.9,93.4,101,108,96.5,96.5,113,96.4,91.5,103,110,93,105,95.8,102,102,100,95.8,100,99.1,98,103,> 10,> 10,> 10,> 10,> 10,0,0,0,0,0
